Measured values published in ChEMBL document CHEMBL5678818, “Discovery of potent SOS1 inhibitors that block RAS activation via disruption of the RAS-SOS1 interaction” (Proc Natl Acad Sci U S A, 2019).

Assays:
[1] = molecular target: Glycogen synthase kinase-3 beta (Homo sapiens) (UniProt P49841); assay: Inhibition of GSK3B (unknown origin) assessed as residual activity at 1000 nM by KINOMEscan analysis relative to control
[2] = molecular target: Cyclin-dependent kinase 15 (Homo sapiens) (UniProt Q96Q40); assay: Inhibition of PFTAIRE2 (unknown origin) assessed as residual activity at 1000 nM by KINOMEscan analysis relative to control
[3] = molecular target: T1, MAP/microtubule affinity-regulating kinase 4 (Homo sapiens) (UniProt Q96L34); assay: Inhibition of MARK4 (unknown origin) assessed as residual activity at 1000 nM by KINOMEscan analysis relative to control
T1 sequence (whole entry): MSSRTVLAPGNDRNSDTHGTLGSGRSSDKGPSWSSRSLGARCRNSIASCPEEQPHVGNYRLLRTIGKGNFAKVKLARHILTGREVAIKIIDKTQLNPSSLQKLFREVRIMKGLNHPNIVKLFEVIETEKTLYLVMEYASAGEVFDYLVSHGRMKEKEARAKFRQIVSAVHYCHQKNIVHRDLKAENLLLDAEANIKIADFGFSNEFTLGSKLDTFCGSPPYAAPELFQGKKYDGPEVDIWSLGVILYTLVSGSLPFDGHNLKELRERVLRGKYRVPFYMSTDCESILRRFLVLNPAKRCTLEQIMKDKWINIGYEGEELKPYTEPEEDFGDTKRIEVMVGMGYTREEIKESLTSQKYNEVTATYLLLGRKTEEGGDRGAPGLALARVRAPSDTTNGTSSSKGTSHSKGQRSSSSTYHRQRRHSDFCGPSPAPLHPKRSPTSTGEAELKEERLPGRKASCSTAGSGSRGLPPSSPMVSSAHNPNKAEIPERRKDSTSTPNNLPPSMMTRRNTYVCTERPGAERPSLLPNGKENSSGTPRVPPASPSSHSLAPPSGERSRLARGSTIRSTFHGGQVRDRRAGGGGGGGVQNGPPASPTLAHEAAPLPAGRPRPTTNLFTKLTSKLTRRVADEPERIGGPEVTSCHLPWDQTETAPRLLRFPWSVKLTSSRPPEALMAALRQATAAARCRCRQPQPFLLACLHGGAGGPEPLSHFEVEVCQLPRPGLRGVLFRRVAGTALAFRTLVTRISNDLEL

[4] = molecular target: T2, Cyclin-dependent kinase-like 2 (Homo sapiens) (UniProt Q92772); assay: Inhibition of CDKL2 (unknown origin) assessed as residual activity at 1000 nM by KINOMEscan analysis relative to control
T2 sequence (whole entry): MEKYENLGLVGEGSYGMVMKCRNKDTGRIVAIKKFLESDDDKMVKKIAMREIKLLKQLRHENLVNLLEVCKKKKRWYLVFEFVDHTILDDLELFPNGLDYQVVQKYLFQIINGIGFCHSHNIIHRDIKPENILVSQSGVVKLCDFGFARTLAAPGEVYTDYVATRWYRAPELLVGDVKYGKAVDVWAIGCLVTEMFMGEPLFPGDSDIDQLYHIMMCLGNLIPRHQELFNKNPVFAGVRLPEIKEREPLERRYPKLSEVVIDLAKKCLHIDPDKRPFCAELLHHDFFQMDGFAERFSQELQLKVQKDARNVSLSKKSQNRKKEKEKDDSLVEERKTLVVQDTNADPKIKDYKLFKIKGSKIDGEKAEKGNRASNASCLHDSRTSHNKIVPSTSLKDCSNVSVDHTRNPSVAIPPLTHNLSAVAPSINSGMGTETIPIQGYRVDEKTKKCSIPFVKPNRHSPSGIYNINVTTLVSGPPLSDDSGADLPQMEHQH

[5] = molecular target: T3, cAMP-dependent protein kinase catalytic subunit PRKX (Homo sapiens) (UniProt P51817); assay: Inhibition of PRKX (unknown origin) assessed as residual activity at 1000 nM by KINOMEscan analysis relative to control
T3 sequence (whole entry): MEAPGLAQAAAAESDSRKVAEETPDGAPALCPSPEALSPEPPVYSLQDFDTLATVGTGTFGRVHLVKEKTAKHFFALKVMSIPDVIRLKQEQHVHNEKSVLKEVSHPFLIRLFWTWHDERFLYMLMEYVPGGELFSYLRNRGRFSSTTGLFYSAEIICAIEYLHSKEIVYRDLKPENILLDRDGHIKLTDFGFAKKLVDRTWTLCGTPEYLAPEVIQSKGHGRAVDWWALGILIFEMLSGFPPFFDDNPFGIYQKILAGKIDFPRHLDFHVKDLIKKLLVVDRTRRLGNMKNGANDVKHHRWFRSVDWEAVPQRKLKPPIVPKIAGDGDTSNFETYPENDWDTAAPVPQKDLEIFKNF

[6] = test system: Epidermal growth factor receptor (Homo sapiens), P00533 [G719C]; assay: Inhibition of EGFR G719C mutant (unknown origin) assessed as residual activity at 1000 nM by KINOMEscan analysis relative to control
[7] = test system: Hepatocyte growth factor receptor (Homo sapiens), P08581 [M1250T]; assay: Inhibition of MET M1250T mutant (unknown origin) assessed as residual activity at 1000 nM by KINOMEscan analysis relative to control
[8] = molecular target: Casein kinase II subunit alpha (Homo sapiens) (UniProt P68400); assay: Inhibition of CSNK2A1 (unknown origin) assessed as residual activity at 1000 nM by KINOMEscan analysis relative to control
[9] = molecular target: Serine/threonine-protein kinase MAK (Homo sapiens) (UniProt P20794); assay: Inhibition of MAK (unknown origin) assessed as residual activity at 1000 nM by KINOMEscan analysis relative to control
[10] = molecular target: BMP-2-inducible protein kinase (Homo sapiens) (UniProt Q9NSY1); assay: Inhibition of BIKE (unknown origin) assessed as residual activity at 1000 nM by KINOMEscan analysis relative to control
[11] = molecular target: Tyrosine-protein kinase Blk (Homo sapiens) (UniProt P51451); assay: Inhibition of BLK (unknown origin) assessed as residual activity at 1000 nM by KINOMEscan analysis relative to control
[12] = molecular target: Fibroblast growth factor receptor 3 (Homo sapiens) (UniProt P22607); assay: Inhibition of FGFR3 (unknown origin) assessed as residual activity at 1000 nM by KINOMEscan analysis relative to control
Fibroblast growth factor receptor 3 (Homo sapiens), sequence (P22607 23-806 limits assumed): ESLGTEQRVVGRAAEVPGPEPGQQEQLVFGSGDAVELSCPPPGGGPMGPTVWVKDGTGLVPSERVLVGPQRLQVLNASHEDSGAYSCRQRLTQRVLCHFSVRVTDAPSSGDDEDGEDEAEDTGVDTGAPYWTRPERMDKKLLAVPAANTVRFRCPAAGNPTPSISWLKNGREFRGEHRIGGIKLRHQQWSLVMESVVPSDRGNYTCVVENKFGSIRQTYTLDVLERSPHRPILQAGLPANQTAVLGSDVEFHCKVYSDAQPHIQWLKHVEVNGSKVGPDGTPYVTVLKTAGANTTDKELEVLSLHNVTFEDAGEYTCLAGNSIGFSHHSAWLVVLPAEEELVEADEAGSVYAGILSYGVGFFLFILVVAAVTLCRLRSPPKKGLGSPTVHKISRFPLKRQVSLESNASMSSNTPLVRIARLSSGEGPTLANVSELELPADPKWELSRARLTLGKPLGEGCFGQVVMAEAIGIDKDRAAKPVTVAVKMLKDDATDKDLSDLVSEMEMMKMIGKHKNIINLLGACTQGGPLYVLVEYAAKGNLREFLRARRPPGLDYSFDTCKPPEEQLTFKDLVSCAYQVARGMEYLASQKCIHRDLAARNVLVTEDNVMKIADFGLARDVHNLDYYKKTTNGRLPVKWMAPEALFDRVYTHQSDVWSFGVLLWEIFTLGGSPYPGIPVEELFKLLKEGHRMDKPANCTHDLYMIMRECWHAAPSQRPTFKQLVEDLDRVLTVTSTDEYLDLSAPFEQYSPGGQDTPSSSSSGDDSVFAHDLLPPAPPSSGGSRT

Casein kinase II subunit alpha (Homo sapiens), sequence (P68400 whole entry, looked up): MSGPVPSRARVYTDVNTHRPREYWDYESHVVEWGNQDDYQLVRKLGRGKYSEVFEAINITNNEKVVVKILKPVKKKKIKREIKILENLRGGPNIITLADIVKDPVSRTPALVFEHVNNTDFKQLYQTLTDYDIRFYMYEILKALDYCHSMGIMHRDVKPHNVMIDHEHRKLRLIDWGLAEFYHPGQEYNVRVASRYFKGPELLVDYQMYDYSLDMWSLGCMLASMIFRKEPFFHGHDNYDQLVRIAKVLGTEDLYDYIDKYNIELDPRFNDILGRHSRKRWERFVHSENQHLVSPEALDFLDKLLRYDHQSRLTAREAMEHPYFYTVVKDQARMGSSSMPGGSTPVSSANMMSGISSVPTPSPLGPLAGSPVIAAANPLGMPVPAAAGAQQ
Tyrosine-protein kinase Blk (Homo sapiens), sequence (P51451 2-505 limits assumed): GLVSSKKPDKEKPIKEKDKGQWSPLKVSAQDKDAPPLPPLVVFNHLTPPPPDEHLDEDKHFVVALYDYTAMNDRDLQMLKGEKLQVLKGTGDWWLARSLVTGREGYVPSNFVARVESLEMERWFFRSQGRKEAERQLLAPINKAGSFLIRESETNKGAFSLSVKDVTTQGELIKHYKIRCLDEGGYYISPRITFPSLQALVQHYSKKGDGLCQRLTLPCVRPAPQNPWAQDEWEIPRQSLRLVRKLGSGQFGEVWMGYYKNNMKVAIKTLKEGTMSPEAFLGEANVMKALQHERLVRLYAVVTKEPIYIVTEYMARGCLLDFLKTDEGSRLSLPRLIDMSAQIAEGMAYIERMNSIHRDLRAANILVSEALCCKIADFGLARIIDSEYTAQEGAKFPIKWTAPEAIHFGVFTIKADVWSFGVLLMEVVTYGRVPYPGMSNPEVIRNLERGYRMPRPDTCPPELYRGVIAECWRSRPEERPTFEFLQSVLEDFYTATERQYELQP
Cyclin-dependent kinase 15 (Homo sapiens), sequence (Q96Q40 whole entry): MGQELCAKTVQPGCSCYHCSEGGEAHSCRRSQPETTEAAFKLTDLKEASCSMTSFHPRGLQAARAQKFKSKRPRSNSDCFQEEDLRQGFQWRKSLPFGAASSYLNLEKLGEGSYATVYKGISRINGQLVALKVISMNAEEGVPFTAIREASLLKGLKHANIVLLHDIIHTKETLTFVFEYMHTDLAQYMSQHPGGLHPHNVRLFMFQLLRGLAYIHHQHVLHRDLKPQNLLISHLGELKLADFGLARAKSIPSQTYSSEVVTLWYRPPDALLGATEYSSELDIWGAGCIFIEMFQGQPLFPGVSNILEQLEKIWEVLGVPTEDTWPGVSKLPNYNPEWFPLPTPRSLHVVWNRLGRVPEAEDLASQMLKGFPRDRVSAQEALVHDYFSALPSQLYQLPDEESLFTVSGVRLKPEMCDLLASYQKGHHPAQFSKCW
Serine/threonine-protein kinase MAK (Homo sapiens), sequence (P20794 whole entry, looked up): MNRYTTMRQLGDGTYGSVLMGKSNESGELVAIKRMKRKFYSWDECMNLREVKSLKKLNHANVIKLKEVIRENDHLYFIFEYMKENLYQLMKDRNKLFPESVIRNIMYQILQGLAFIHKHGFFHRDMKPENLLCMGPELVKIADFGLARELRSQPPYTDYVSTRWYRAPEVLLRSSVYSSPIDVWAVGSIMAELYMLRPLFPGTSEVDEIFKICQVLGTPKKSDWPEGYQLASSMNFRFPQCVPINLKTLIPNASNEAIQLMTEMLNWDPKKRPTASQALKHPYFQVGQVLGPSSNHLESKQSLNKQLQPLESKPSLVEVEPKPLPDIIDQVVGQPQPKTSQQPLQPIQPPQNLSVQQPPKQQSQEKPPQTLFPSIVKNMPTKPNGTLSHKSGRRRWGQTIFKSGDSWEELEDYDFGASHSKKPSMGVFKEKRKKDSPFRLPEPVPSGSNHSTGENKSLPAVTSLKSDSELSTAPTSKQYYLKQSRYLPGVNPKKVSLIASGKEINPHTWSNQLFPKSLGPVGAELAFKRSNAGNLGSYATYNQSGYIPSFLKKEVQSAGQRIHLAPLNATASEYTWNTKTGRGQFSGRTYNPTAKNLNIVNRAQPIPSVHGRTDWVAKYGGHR
BMP-2-inducible protein kinase (Homo sapiens), sequence (Q9NSY1 whole entry, looked up): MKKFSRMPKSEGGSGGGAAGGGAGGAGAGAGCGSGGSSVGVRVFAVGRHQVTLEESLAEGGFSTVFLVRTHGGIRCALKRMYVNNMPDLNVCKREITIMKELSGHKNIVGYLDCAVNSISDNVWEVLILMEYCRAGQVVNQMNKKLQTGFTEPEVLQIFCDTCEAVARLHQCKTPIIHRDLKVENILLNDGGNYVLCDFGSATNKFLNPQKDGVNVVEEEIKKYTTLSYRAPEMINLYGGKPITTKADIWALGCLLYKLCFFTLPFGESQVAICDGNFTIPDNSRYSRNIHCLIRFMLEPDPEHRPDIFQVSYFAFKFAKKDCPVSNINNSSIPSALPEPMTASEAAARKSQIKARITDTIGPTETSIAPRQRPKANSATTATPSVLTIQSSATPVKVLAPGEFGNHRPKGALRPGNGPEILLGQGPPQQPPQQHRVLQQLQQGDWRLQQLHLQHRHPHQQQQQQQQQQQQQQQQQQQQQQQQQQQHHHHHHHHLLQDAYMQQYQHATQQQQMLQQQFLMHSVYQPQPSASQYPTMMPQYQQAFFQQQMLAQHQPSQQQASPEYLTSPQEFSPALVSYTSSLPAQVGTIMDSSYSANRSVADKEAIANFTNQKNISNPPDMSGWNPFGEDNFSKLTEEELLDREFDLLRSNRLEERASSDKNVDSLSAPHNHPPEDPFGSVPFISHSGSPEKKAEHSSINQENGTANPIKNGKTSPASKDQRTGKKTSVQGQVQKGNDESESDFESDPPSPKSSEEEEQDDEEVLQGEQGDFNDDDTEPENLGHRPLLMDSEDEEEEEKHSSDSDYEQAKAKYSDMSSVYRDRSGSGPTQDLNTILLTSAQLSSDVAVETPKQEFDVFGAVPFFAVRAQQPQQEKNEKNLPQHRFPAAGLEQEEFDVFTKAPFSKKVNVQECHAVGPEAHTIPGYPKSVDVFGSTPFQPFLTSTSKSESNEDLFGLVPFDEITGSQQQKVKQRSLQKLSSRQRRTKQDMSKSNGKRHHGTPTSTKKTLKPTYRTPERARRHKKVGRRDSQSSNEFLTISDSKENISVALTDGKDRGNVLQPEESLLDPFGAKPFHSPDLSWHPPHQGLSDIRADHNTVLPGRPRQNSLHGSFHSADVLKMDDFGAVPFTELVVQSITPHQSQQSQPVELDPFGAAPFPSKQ
Glycogen synthase kinase-3 beta (Homo sapiens), sequence (P49841 whole entry, looked up): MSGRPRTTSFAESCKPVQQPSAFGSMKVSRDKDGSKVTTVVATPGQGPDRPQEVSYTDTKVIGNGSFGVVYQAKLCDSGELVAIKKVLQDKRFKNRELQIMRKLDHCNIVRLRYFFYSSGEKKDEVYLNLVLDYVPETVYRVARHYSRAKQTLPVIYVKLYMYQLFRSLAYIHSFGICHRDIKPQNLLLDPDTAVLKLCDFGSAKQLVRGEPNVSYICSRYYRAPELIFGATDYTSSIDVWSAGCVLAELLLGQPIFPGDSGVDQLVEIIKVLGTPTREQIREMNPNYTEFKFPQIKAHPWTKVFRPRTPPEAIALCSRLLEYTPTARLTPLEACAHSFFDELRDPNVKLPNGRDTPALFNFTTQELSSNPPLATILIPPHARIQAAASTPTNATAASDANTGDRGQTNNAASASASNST

`COc1cc2ncnc(N[C@H](C)c3cccc4ccccc34)c2cc1OC` gave an Activity [1] of 100%, an Activity [2] of 100% and an Activity [3] of 66%. The Activity [4] was 97%, the Activity [5] was 96% and the Activity [6] was 1.6%. The Activity [7] was 98%, the Activity [8] was 100% and the Activity [9] was 100%. It also gave an Activity [10] of 100%, an Activity [11] of 53% and an Activity [12] of 100%.
`COc1cc2nc(C)nc(N[C@H](C)c3cccc(-c4cn[nH]c4)c3)c2cc1OC` showed an Activity [1] of 61%, an Activity [2] of 94% and an Activity [3] of 88%. It also gave an Activity [4] of 81%, an Activity [5] of 100% and an Activity [6] of 77%. It also gave an Activity [7] of 100%, an Activity [8] of 70% and an Activity [9] of 80%. For the same compound, the Activity [10] was 71%, the Activity [11] was 100% and the Activity [12] was 100%.
